Laboratory results published in publication PMC2742655 (Bioorganic & medicinal chemistry letters, 2009).
Each block holds one compound with its values, some of them ahead of it.

Legend:
falcipain-2 (FP-2) = target: T1, falcipain-2 (FP-2) (Plasmodium falciparum, UniProt Q8I6U4); assay type: biochemical; settings: ratio 6d:12d:5, relative to 5 = 1
T1 sequence (Q8I6U4 244-484): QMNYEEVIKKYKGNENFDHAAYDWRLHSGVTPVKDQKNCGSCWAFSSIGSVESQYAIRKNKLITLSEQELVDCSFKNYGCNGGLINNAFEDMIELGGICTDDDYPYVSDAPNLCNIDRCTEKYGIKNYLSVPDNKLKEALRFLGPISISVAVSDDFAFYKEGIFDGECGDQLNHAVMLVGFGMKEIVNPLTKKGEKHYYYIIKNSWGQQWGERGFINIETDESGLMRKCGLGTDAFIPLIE

[1] = system: P. falciparum trophozoites (food vacuole); settings: parasites incubated with compound; cited from earlier work
[2] = system: P. falciparum W2 strain (chloroquine-resistant); experiment: Antiplasmodial activity, growth of P. falciparum W2 strain; assay type: cell-based; settings: Plasmodium falciparum, W2, read-out: IC50 W2
[3] = system: P. falciparum V1/S (chloroquine and pyrimethamine resistant); experiment: microbe, parasite or virus in culture; assay type: cell-based; settings: Plasmodium falciparum, read-out: IC50 VI/S
[4] = system: P. falciparum 3D7 (chloroquine-sensitive); experiment: Antiplasmodial activity, 3D7 strain; assay type: cell-based; settings: Plasmodium falciparum, 3D7, read-out: IC50 3D7
[5] = system: P. falciparum D6 (chloroquine sensitive, mefloquine resistant); experiment: Antiplasmodial activity, D6 strain; assay type: cell-based; settings: Plasmodium falciparum, D6, read-out: IC50 D6
[6] = system: P. falciparum FCR3 (atovaquone resistant); experiment: Antiplasmodial activity, FCR3 strain; assay type: cell-based; settings: Plasmodium falciparum, FCR3, read-out: IC50 FCR3

IC50 ratio for FP-2 inhibition (falcipain-2 (FP-2)): 1
SMILES: CC(C)C[C@H](NC(=O)N1CCOCC1)C(=O)N[C@H](/C=C/S(=O)(=O)c1ccccc1)CCc1ccccc1 [Compound 5, Mu-Leu-hPhe-VSPh]

IC50 ratio for FP-2 inhibition (falcipain-2 (FP-2)): 70
SMILES: CC(C)C[C@H](NC(=O)OC(C)(C)C)C(=O)N[C@H](/C=C/S(=O)(=O)c1ccccc1)CCc1ccccc1 [Compound 12d]

SMILES: CC(C)C[C@H](NC(=O)[C@H]1O[C@@H]1C(=O)O)C(=O)NCCCCN=C(N)N [Compound E64, E64]
swollen food vacuole abnormality (block in hemoglobin hydrolysis) [1]: observed

SMILES: CCN(CC)CCCC(C)Nc1ccnc2cc(Cl)ccc12 (stereo not drawn) [Chloroquine]
IC50 [2]: 78.1 ± 6.91 nM | IC50 [3]: 65 ± 4.1 nM | IC50 [4]: 11.6 ± 1.1 nM | IC50 [5]: 16.9 ± 2.1 nM | IC50 [6]: 51.1 ± 0.1 nM

SMILES: CC(C)C[C@H](NC(=O)c1ccc(CO[C@H]2O[C@@H]3O[C@@]4(C)CC[C@H]5[C@H](C)CC[C@@H]([C@H]2C)[C@@]35OO4)cc1)C(=O)N[C@H](/C=C/S(=O)(=O)c1ccccc1)CCc1ccccc1 [Compound 6d]
IC50 ratio for FP-2 inhibition (falcipain-2 (FP-2)): 1650
